Reference: patent US20240034730A1, “PYRAZOLO DERIVATIVES AS HUMAN DIHYDROOROTATE DEHYDROGENASE (HDHODH) INHIBITORS FOR USE AS ANTIVIRALS” (DRUG DISCOVERY AND CLINIC S.R.L., priority 2020, published 2024)
Values after ≈ are worked out from the molar mass of the structure shown. Read-outs that look alike come from different tables or passages of the source.

Tests used:
[1] = pH 7.4
Description: (§1) Lipophilicity. The shake flask method was chosen to determinate logD7.4.
(§2) The partition coefficients between n-octanol and PBS at pH 7.4 (log D^7.4) were obtained using the shake-flask technique at room temperature. In the shake-flask experiments, 50 mM of phosphate buffered saline pH 7.4 was used as the aqueous phase. The organic (n-octanol) and aqueous phases were mutually saturated by shaking for 4 h. The compounds were solubilized in the buffered aqueous phase at the highest concentration compatible with solubility and appropriate amounts of n-octanol were added. The two phases were shaken for about 20 min, by which time the partitioning equilibrium of solutes had been reached, and then centrifuged (10000 rpm, 10 min).

[2] = target: recombinant hDHODH (Homo sapiens (Human), UniProt Q02127); assay: hDHODH inhibition assay (DCIP reduction); type: biochemical; conditions: recombinant GST-hDHODH; means ± SE of three independent experiments; read-out: hDHODH IC50 ± SE
[3] = test system: hCoV-OC43; assay: Focus forming reduction assay (FFRA), hCoV-OC43 in HCT-8 cells, single concentration; type: cell-based; conditions: HCT8 cells, 72 h p.i., vs DMSO control; for inhibition at 0.1 µM: Betacoronavirus 1, OC43, HCT-8, 72 h, read-out: % Decrease of hCoV-OC43 replication in presence of inhibitor 0.1 μM
[4] = test system: hCoV-OC43; assay: Anti-hCoV-OC43 activity in HCT-8 cells, concentration-dependent
[5] = literature value (refs 15, 16); read-out: CC50 from literature (SARS-CoV-2); cited from earlier work
[6] = test system: hCoV-229E; assay: Anti-hCoV-229E activity in MRC5 fibroblasts (CPE, CellTiter-Glo); type: cell-based
[7] = test system: HSV-1; assay: Plaque reduction assay (PRA), HSV-1 in Vero cells; type: cell-based, Herpes simplex virus 1; conditions: Human alphaherpesvirus 1, Vero
[8] = log D (pH 7.4), shake-flask n-octanol/PBS; conditions: n-octanol/PBS pH 7.4, shake flask
Description: as §1, §2

[9] = Solubility assay at pH 7.4 in PBS; type: physicochemical; conditions: for solubility at 24 h: 25 °C, pH 7.4, aqueous buffer, thermodynamic from solid
Description: Solubility assay at pH 7.4. […] The samples were shaken in an orbital shaker at 25° C. for 24 h. These suspensions were filtered through a PTFE 0.45 μm filter (VWR), and the solutions were chromatographically analyzed using a Perkin Elmer Ultra High Performance Liquid Chromatography (UHPLC) instrument, equipped with a reverse-phase (RP) C18 Phenomenex column (2.1×100 mm, 1.7 μm particle size). Gradient elution: the ratio of eluents A and B (0.1% trifluoroacetic acid in water and 0.1% trifluoroacetic acid in acetonitrile, respectively) changed linearly from 60% A-40% B to 0% A-100% B in 12 minutes, followed by 5 minutes in isocratic elution at 100% of eluent B and then 4 minutes in equilibration elution to reset the starting conditions. The flow rate was 0.5 mL/min. Standard injection volumes were either 2 or 4 μl for poorly soluble compounds. The detection system was a Perkin Elmer diode-array-detector. The wavelengths that were monitored for each compound were defined according to the compound's own absorption spectrum. Solubility, expressed as μM concentration of the saturated solution, was calculated via interpolation with external calibration curves that were obtained with solutions of each compound in acetonitrile.

[10] = test system: RSV; conditions: literature value (ref 17); read-out: EC50 RSV from literature; cited from earlier work
[11] = test system: SARS-CoV-2; conditions: literature value (refs 15, 16); read-out: EC50 SARS-CoV-2 from literature; cited from earlier work
[12] = Cytotoxicity on MDCK cells (Cell Titer Glo); type: cell-based, Canine; conditions: dog, read-out: CC50 (Influenza A row)
[13] = in vitro; conditions: African green monkey
[14] = test system: Influenza A virus (A/Puerto Rico/8/34); assay: microbe, parasite or virus in culture; type: cell-based; conditions: PRA, MDCK cells
[15] = test system: HSV-2; assay: Plaque reduction assay (PRA), HSV-2 in Vero cells; type: cell-based, Herpes simplex virus 2; conditions: Human alphaherpesvirus 2, Vero, read-out: EC50 HSV-2
[16] = test system: RSV; assay: Plaque reduction assay (PRA), RSV in HEp-2 cells; type: cell-based; conditions: human respiratory syncytial virus, HEp-2, read-out: EC50 RSV
[17] = in vitro; type: cell-based; conditions: human

Sequence of recombinant hDHODH (Q02127 whole entry): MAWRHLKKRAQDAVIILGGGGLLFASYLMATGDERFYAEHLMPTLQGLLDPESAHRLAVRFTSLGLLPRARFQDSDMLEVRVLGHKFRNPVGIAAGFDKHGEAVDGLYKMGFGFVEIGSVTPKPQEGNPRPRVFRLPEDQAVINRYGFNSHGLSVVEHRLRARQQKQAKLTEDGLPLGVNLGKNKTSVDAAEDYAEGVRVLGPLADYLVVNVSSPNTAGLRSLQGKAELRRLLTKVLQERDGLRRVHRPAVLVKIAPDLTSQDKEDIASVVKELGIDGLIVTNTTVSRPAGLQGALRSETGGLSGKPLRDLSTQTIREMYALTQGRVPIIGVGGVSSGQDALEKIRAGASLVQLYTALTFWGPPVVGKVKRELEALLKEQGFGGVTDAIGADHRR

For O=C(Nc1c(F)c(F)c(-c2cccc(OC(F)(F)F)c2)c(F)c1F)c1c(O)nn2ccccc12 [Compound 15, 2-Hydroxy-N-(2,3,5,6-tetrafluoro-3′-(trifluoromethoxy)-[1,1′-biphenyl]-4-yl)pyrazolo[1,5-a]pyridine-3-carboxamide], which “Log D7.4 ± SD” value [1] is on record?
The value was 3.27 ± 0.19.

And the IC50 [2]?
Its IC50 is 2.3 ± 0.33 nM.

What about the inhibition at 0.1 µM [3] of the same compound?
Its inhibition at 0.1 µM is 93.6%.

With CCC(CC)COC(=O)[C@H](C)N[P@](=O)(OC[C@H]1O[C@@](C#N)(c2ccc3c(N)ncnn23)[C@H](O)[C@@H]1O)Oc1ccccc1 [Remdesivir] as the compound, how does the EC50 ([4]; read-out: EC50 hCoV-OC43) read?
Its EC50 is 147 ± 34 nM.

And the CC50 [5]?
The CC50 was greater than 100000 nM.

And the EC50 ([6]; Human coronavirus 229E, MRC5 fibroblasts)?
Its EC50 is 34.8 ± 5 nM.

For Nc1nc2c(ncn2COCCO)c(=O)[nH]1 [ACV], which EC50 ([7]; read-out: EC50 anti-HSV of reference drug) is on record?
Its EC50 is 180 nM.

Which results are given for O=C(Nc1ccc2c(ccn2-c2ccccc2)c1)c1c(O)nn2ccccc12 [Compound 20, 2-Hydroxy-N-(1-phenyl-1H-indol-5-yl)pyrazolo[1,5-a]pyridine-3-carboxamide]?
Log D7.4 ± SD [8]: 2.89 ± 0.05; IC50 [2]: 2760 ± 386 nM; melting point: 133.6 to 135.9 °C

What does the source list for O=C(Nc1c(F)c(F)c(-c2ccccc2)c(F)c1F)c1c(O)nn2c1CCCC2 [Compound 5, 2-Hydroxy-N-(2,3,5,6-tetrafluoro-[1,1′-biphenyl]-4-yl)-4,5,6,7-tetrahydropyrazolo[1,5-a]pyridine-3-carboxamide]?
Log D7.4 ± SD [1]: 2.36 ± 0.02; IC50 [2]: 5.8 ± 0.4 nM; Solubility in PBS ([9]; pH 7.4): <LOD; inhibition at 0.1 µM [3]: 31.3%

For Oc1nn2ccccc2c1/N=N/c1c(F)c(F)c(-c2ccccc2)c(F)c1F [Compound 25], which IC50 [2] is on record?
Its IC50 is 13 nM.

What about the “% Decrease of hCoV-OC43 replication in presence of inhibitor 0.1 μM” value [3] of the same compound?
The value was 18.70%.

With CC(F)(F)COc1cccc(-c2c(F)c(F)c(NC(=O)c3c(O)nn4ccccc34)c(F)c2F)c1 [Compound 40, N-(3′-(2,2-difluoropropoxy)-2,3,5,6-tetrafluoro-[1,1′-biphenyl]-4-yl)-2-hydroxypyrazolo[1,5-a]pyridine-3-carboxamide] as the compound, how does the IC50 [2] read?
The IC50 was 1.48 ± 0.2 nM.

What about the melting point of the same compound?
Its melting point is 229.6 to 231.7 °C.

With O=C(Nc1ccc2c(c1)nnn2-c1ccccc1)c1c(O)nn2ccccc12 [Compound 22, 2-Hydroxy-N-(1-phenyl-1H-benzo[d][1,2,3]triazol-5-yl)pyrazolo[1,5-a]pyridine-3-carboxamide] as the compound, how does the “Log D7.4 ± SD” value [8] read?
The value was 1.59 ± 0.03.

And the IC50 [2]?
Its IC50 is 7200 ± 1600 nM.

What about the melting point of the same compound?
The melting point was 133.6 to 135.9 °C.

Which “Log D7.4 ± SD” value [8] does the source give for Cc1cc(NC(=O)c2c(O)nn3ccccc23)c(C(C)C)cc1Oc1ccncc1 [Compound 36, 2-Hydroxy-N-(2-isopropyl-5-methyl-4-(pyridin-4-yloxy)phenyl)pyrazolo[1,5-a]pyridine-3-carboxamide] here?
The value was 2.51 ± 0.07.

What about the solubility at 24 h [9] of the same compound?
Its solubility at 24 h is 111.1 ± 0.35 µM (≈ 44.7 µg/mL).

What does the source list for O=c1nc(NO)ccn1[C@@H]1O[C@H](CO)[C@@H](O)[C@H]1O [EIDD-1931]?
EC50 [10]: 690 nM; CC50 [5]: > 10000 nM; EC50 [11]: 300 nM

Which “Log D7.4 ± SD” value [8] does the source give for Cc1cc(NC(=O)c2c(O)nn3ccccc23)c(C(C)C)cc1Oc1ccccc1 [Compound 29, 2-Hydroxy-N-(2-isopropyl-5-methyl-4-phenoxyphenyl)pyrazolo[1,5-a]pyridine-3-carboxamide] here?
The value was 3.18 ± 0.09.

And the solubility at 24 h [9]?
The solubility at 24 h was 1.2 ± 0.28 µM (≈ 0.482 µg/mL).

What does the source list for Cc1cc(NC(=O)c2c(O)nn3ccccc23)c(C(C)C)cc1Oc1ccc(C(F)(F)F)cc1 [Compound 37, 2-Hydroxy-N-(2-isopropyl-5-methyl-4-(4-(trifluoromethyl)phenoxy)phenyl)pyrazolo[1,5-a]pyridine-3-carboxamide]?
solubility at 24 h [9]: 1.23 ± 0.09 µM (≈ 0.577 µg/mL); inhibition at 0.1 µM [3]: 36.1%

Which EC50 ([7]; read-out: EC50 HSV-1) does the source give for Cc1c(-c2ccc(-c3ccccc3F)cc2)nc2ccc(F)cc2c1C(=O)O [Brequinar] here?
Its EC50 is 530 nM.

What about the CC50 at 72 h [12] of the same compound?
Its CC50 at 72 h is 5000 nM.

What about the CC50 at 3 days [13] of the same compound?
Its CC50 at 3 days is 100000 nM.

What about the “Log D7.4 ± SD” value [8] of the same compound?
The value was 1.83 ± 0.02.

What about the EC50 ([4]; read-out: EC50 hCoV-OC43) of the same compound?
The EC50 was 42.7 nM.

What about the EC50 ([4]; read-out: EC50 hCoV-OC43, listed as brequinar) of the same compound?
Its EC50 is 22 ± 3 nM.

And the EC50 [14]?
Its EC50 is 760 nM.

And the EC50 [15]?
Its EC50 is 1770 nM.

What about the EC50 [16] of the same compound?
Its EC50 is 15 nM.

And the CC50 at 72 h [17]?
Its CC50 at 72 h is 168000 nM.

What about the EC50 ([6]; Human coronavirus 229E, MRC5, MRC5 fibroblasts) of the same compound?
The EC50 was 42.7 ± 3 nM.

And the EC50 ([6]; MRC5 fibroblasts)?
Its EC50 is 22 nM.

What does the source list for Cc1cc(Oc2ccccc2)c(C(C)C)cc1NC(=O)c1c(O)nn2ccccc12 [Compound 30, 2-Hydroxy-N-(5-isopropyl-2-methyl-4-phenoxyphenyl)pyrazolo[1,5-a]pyridine-3-carboxamide]?
Log D7.4 ± SD [8]: 2.91 ± 0.07; solubility at 24 h [9]: 0.98 ± 0.23 µM (≈ 0.393 µg/mL)

What does the source list for O=C(Nc1ccc2c(c1)ncn2-c1ccccc1)c1c(O)nn2ccccc12 [Compound 21, 2-Hydroxy-N-(1-phenyl-1H-benzo[d]imidazol-5-yl)pyrazolo[1,5-a]pyridine-3-carboxamide]?
Log D7.4 ± SD [8]: 2.55 ± 0.04; IC50 [2]: > 10000 nM; melting point: 133.6 to 135.9 °C

For O=C(Nc1c(F)c(F)c(-c2ccnc(C(F)(F)F)c2)c(F)c1F)c1c(O)nn2ccccc12 [Compound 9, 2-Hydroxy-N-(2,3,5,6-tetrafluoro-4-(2-(trifluoromethyl)pyridin-4-yl)phenyl)pyrazolo[1,5-a]pyridine-3-carboxamide], which “Log D7.4 ± SD” value [1] is on record?
Its value is 1.84 ± 0.06.

What about the IC50 [2] of the same compound?
The IC50 was 150 ± 15 nM.

And the inhibition at 0.1 µM [3]?
The inhibition at 0.1 µM was greater than 50%.

Which EC50 ([7]; read-out: EC50 HSV-1) does the source give for CCCOc1cccc(-c2c(F)c(F)c(NC(=O)c3c(O)nn4ccccc34)c(F)c2F)c1 [Compound 17, 2-Hydroxy-N-(2,3,5,6-tetrafluoro-3′-propoxy-[1,1′-biphenyl]-4-yl) pyrazolo[1,5-a]pyridine-3-carboxamide] here?
The EC50 was 90 nM.

What about the CC50 at 3 days [13] of the same compound?
The CC50 at 3 days was 117000 nM.

And the “Log D7.4 ± SD” value [1]?
Its value is 3.28 ± 0.12.

What about the EC50 [15] of the same compound?
Its EC50 is 110 nM.
